Experimental data published in patent US6967102B1, “Nitric oxide manipulation of muscle satellite cell activation” (University of Manitoba, priority 1999, dated 2005).
“Also recorded” adds a separate entry of the source.

Key:
[1] = test system: regenerating muscle; experiment: Muscle regeneration 6 days after crush injury, normal mice; assay type: in vivo
Procedure: The time course of treatment effects was determined at two intervals; during the early response 0, 5, 10 and 30 min after injury, and over the longer term after 6 days recovery. Short term experiments were repeated at least twice. The longer term animals were maintained either on plain drinking water or water containing fresh L-NAME at 12.5 mg/100 ml (30 mg/kg/day), based on an intake of 6–7 ml/day/mouse (McIntosh et al., 1994. 17:444–453). In the longer term repair studies, there were 4 normal mice in each of saline- and L-NAME-treated groups. An additional 2 normal and 2 mdx mice were injected once before injury with L-NAME and given plain water for 6 days.
In the longer term study of NOS inhibition during repair, saline and L-NAME-treated normal mice recovered for 6 days. Two mice per group were injected 2 hr before sacrifice with BrdU (i.p., 1.6 mg in 0.4 ml saline) and sections were immunostained using anti-BrdU antibodies as above.
Sections and cultures were viewed on an Olympus microscope equipped with epifluorescence and phase contrast optics. Observations were based on systematic viewing of 2–4 longitudinal sections per muscle (separated by […]). In the case of muscle regenerating from crush injury, observations (without knowledge of treatment group) were made in pre-set fields of muscle from the central crush region, the adjacent regenerating region and the surviving region as reported (McIntosh et al. (1994) Muscle Nerve 17: 444–453). Representative photographs of muscle fibers and satellite cells were taken on over 700 frames of ASA 400 Fuji Sensia slide film. Where stated, the number of satellite cells observed in each category, group or condition was estimated from photographed slides rather than from direct counts made during observations under oil immersion. Selected slides were scanned (Olympus Film Scanner ES-10, Olympus Optical Co., Tokyo), formatted into plates with little or no enlargement and printed (Freehand 8.0, Macromedia Inc.).

[2] = test system: satellite cells; experiment: Cell yield time course 0–30 min after crush injury of right tibialis anterior, mdx mice; assay type: in vivo; details: L-NAME
[3] = test system: satellite cells; experiment: Satellite cell morphometry from electron micrographs 0 and 10 min after crush injury; assay type: in vivo, mice; details: L-NAME pretreatment
From the text: Measurements of cell area (size increases in activated cells), nucleus-to-cytoplasm ratio (a measure that decreases with activation), and cytoplasmic density (a measure that decreases in activation with the increase in cell size, despite the hypertrophy of cytoplasmic organelles) were made from electron micrographs without knowledge of their source. Two investigators had to agree on the satellite cell identification before cells were included in the study, with the stipulation that cell profiles had complete nuclei and cell membrane visible in a photograph or montage (all photographs taken at identical magnification of 10,000×) Satellite cells originated from the central crush-injured region of muscles collected from each mouse (n=4). Cytoplasmic density was determined as [the integrated cell density minus the integrated nuclear density] divided by [cell area minus nuclear area]. A computer was used to scan micrograph negatives, and digital images were analyzed using the program NIH Image for morphometry.

[4] = test system: dystrophic muscle; experiment: Longer term systemic L-NAME treatment, severity of dystrophy in mdx mice; assay type: in vivo; details: systemic L-NAME (3 weeks / drinking water); young mdx animals; diaphragm, SOL, EDL, TA
From the text: The present results address for the first time the initial steps of satellite cell activation. A single exposure to NOS inhibition had subtle effects on myotube formation that echo NO-stimulated myoblast fusion in vitro. Longer NOS inhibition reduced the effectiveness of repair and restricted its distribution, in agreement with the idea that shear-induced responses become attenuated longitudinally away from the injury. The significant negative effect of pharmacologic NOS inhibition on myogenic repair reported here was further extended by the recent preliminary studies on repair in NOS-I knockout mice (n≈2), and during longer term NOS inhibition in mdx mice (n≈22).
A study of 4 groups (n≈10/group) of mdx dystrophic mice treated with placebo, deflazacort, deflazacort plus L-NAME (a NOS inhibitor), or deflazacort plus L-arginine (a […]). Deflazacort was given by daily injection (ip) and L-NAME and L-arginine were given systemically in the drinking water.

COC(=O)[C@@H](N)CCCNC(=N)N[N+](=O)[O-] [L-NAME, Nω-nitro-L-arginine methyl ester] was tested, and the muscle regeneration ([1]; L-NAME in drinking water (30 mg/kg/day) over 6 days of repair, n=4) was “muscle regeneration was reduced; also recorded: reduces normal muscle regeneration”, the “density of myotubes per field vs saline-treated mice” value ([1]; L-NAME over 6 days of repair) was “much lower density per field” and the branched myotubes ([1]; longer term L-NAME exposure of regenerating mdx and normal muscle in vivo) was “high prevalence of branched myotubes”. For the same compound, the “myotubes appearing as incompletely fused blocks of cells” value ([1]; single injection of L-NAME before injury, 6 days, estimated) was 5–10%, the “muscle regeneration after 6 days” value ([1]; single injection of L-NAME before injury, n=2) was “subtle effects on muscle regeneration” and the “increase of LTA cell yield at 10 min” value [2] was 50%. For the same compound, the RSOL cell yield ([2]; 0–30 min) was “did not change over time”, the “RTA cell yield time course” value ([2]; 0–30 min) was “rose slowly over the 30 min. time course; also recorded: decreased and further delayed the peak of myogenic cells; also recorded: prevented the increased RTA yield at 10 min” and the cell area ([3]; 0 minutes post-crush, n = 8) was 9.0 ± 1.6 arbitrary units. For the same compound, the cytoplasmic density ([3]; 0 minutes post-crush, n = 8) was 91.7 ± 5.8 arbitrary units, the “nucleus:cytoplasm ratio” value ([3]; 0 minutes post-crush, n = 8) was 70.2 ± 1.7% and the “satellite cell activation state by morphologic criteria” value ([3]; 0–10 minutes post-crush) was “maintained quiescence over 10 minutes”. For the same compound, the cell area ([3]; 10 minutes post-crush, n = 3) was 6.3 ± 1.1 arbitrary units, the cytoplasmic density ([3]; 10 minutes post-crush, n = 3) was 66.2 ± 2.1 arbitrary units and the “nucleus:cytoplasm ratio” value ([3]; 10 minutes post-crush, n = 3) was 52.0 ± 8.7 %. For the same compound, the severity of dystrophy [4] was “appeared to increase the severity of dystrophy; also recorded: makes dystrophy more severe”.
